Data reported in ChEMBL document CHEMBL2396653, “Synthesis and antimycobacterial evaluation of N-substituted 5-chloropyrazine-2-carboxamides” (Bioorg Med Chem Lett, 2013).
Values after ≈ are worked out from the molar mass of the structure shown. Active and inactive are the calls of the source. No cut-off for these calls is given here.

Legend:
[1] = system: Mycobacterium tuberculosis; experiment: Antimycobacterial activity against Mycobacterium tuberculosis H37Rv assessed as growth inhibition after 14 days by microdilution method; format: functional; settings: 336 h
[2] = Stability of the compound at pH 7; format: physicochemical; settings: buffer
Escherichia coli = experiment: Antibacterial activity against Escherichia coli CCM 4517 assessed as growth inhibition after 24 to 48 hrs by microbroth dilution method; format: functional, organism-based
Candida tropicalis = experiment: Antifungal activity against Candida tropicalis 156 assessed as growth inhibition after 24 to 48 hrs by microbroth dilution method; format: functional, organism-based
Nakaseomyces glabratus = experiment: Antifungal activity against Candida glabrata 20/I assessed as growth inhibition after 24 to 48 hrs by microbroth dilution method; format: functional, organism-based
Staphylococcus aureus [3] = experiment: Antibacterial activity against methicillin-resistant Staphylococcus aureus H 5996/08 clinical isolate assessed as growth inhibition after 24 to 48 hrs by microbroth dilution method; format: functional, organism-based
Klebsiella pneumoniae [4] = experiment: Antibacterial activity against Klebsiella pneumoniae D 11750/08 clinical isolate assessed as growth inhibition after 24 to 48 hrs by microbroth dilution method; format: functional, organism-based
Mycobacterium kansasii = experiment: Antimycobacterial activity against Mycobacterium kansasii CNCTC My 235/80 assessed as growth inhibition after 14 days by microdilution method; format: functional; settings: CNCTC My 235/80, 336 h
Staphylococcus aureus [5] = experiment: Antibacterial activity against Staphylococcus aureus CCM 4516/08 assessed as growth inhibition after 24 to 48 hrs by microbroth dilution method; format: functional, organism-based
Klebsiella pneumoniae [6] = experiment: Antibacterial activity against ESBL-positive Klebsiella pneumoniae J 14368/08 clinical isolate assessed as growth inhibition after 24 to 48 hrs by microbroth dilution method; format: functional, organism-based
Trichosporon asahii = experiment: Antifungal activity against Trichosporon asahii 1188 assessed as growth inhibition after 24 to 48 hrs by microbroth dilution method; format: functional, organism-based
[7] = system: Trichophyton mentagrophytes; experiment: Antifungal activity against Trichophyton mentagrophytes 445 assessed as growth inhibition after 72 to 120 hrs by microbroth dilution method; format: functional, organism-based
Enterococcus = experiment: Antibacterial activity against Enterococcus sp. J 14365/08 clinical isolate assessed as growth inhibition after 24 to 48 hrs by microbroth dilution method; format: functional, organism-based
Mycobacterium avium [8] = experiment: Antimycobacterial activity against Mycobacterium avium CNCTC My 152/73 assessed as growth inhibition after 14 days by microdilution method; format: functional; settings: CNCTC My 152/73, 336 h
Pseudomonas aeruginosa = experiment: Antibacterial activity against Pseudomonas aeruginosa CCM 1961 assessed as growth inhibition after 24 to 48 hrs by microbroth dilution method; format: functional, organism-based
Aspergillus fumigatus = experiment: Antifungal activity against Aspergillus fumigatus 231 assessed as growth inhibition after 24 to 48 hrs by microbroth dilution method; format: functional, organism-based
Candida albicans = experiment: Antifungal activity against Candida albicans ATCC 44859 assessed as growth inhibition after 24 to 48 hrs by microbroth dilution method; format: functional, organism-based
Pichia kudriavzevii = experiment: Antifungal activity against Candida krusei E28 assessed as growth inhibition after 24 to 48 hrs by microbroth dilution method; format: functional, organism-based
[9] = system: Staphylococcus epidermidis; experiment: Antibacterial activity against Staphylococcus epidermidis H 6966/08 clinical isolate assessed as growth inhibition after 24 to 48 hrs by microbroth dilution method; format: functional, organism-based
Mycobacterium avium [10] = experiment: Antimycobacterial activity against Mycobacterium avium CNCTC My 80/72 assessed as growth inhibition after 14 days by microdilution method; format: functional; settings: CNCTC My 80/72, 336 h
[11] = Lipophilicity, log K of the compound by HPLC analysis; format: physicochemical
Lichtheimia corymbifera = experiment: Antifungal activity against Absidia corymbifera 272 assessed as growth inhibition after 24 to 48 hrs by microbroth dilution method; format: functional, organism-based

Row | SMILES | MIC [1] [µg/mL] | Stability [2] | growth inhibition (GI) (Escherichia coli) | growth inhibition (GI) (Candida tropicalis) | growth inhibition (GI) (Nakaseomyces glabratus) | growth inhibition (GI) (Staphylococcus aureus [3]) | growth inhibition (GI) (Klebsiella pneumoniae [4]) | MIC (Mycobacterium kansasii) [µg/mL] | growth inhibition (GI) (Staphylococcus aureus [5]) | growth inhibition (GI) (Klebsiella pneumoniae [6]) | growth inhibition (GI) (Trichosporon asahii) | growth inhibition (GI) [7] | growth inhibition (GI) (Enterococcus) | MIC (Mycobacterium avium [8]) [µg/mL] | growth inhibition (GI) (Pseudomonas aeruginosa) | growth inhibition (GI) (Aspergillus fumigatus) | growth inhibition (GI) (Candida albicans) | growth inhibition (GI) (Pichia kudriavzevii) | MIC (Mycobacterium avium [10]) [µg/mL] | growth inhibition (GI) (Lichtheimia corymbifera) | also measured
1 | O=C(NCc1ccccc1F)c1cnc(Cl)cn1 | 25 (≈ 94.1 µM) | Stable | inactive | inactive | inactive | inactive | inactive | 50 (≈ 188 µM) | inactive | inactive | inactive | inactive | inactive | > 100 | inactive | inactive | inactive | inactive | > 100 | inactive | growth inhibition (GI) [9]: inactive; log K [11]: 0.3395
2 | O=C(NCc1ccccc1C(F)(F)F)c1cnc(Cl)cn1 | 25 (≈ 79.2 µM) | Stable | inactive | inactive | inactive | inactive | inactive | 100 (≈ 317 µM) | inactive | inactive | inactive | inactive | inactive | > 100 | inactive | inactive | inactive | inactive | > 100 | inactive | growth inhibition (GI) [9]: inactive; log K [11]: 0.4851
3 | O=C(NCc1ccccc1Cl)c1cnc(Cl)cn1 | 25 (≈ 88.6 µM) | Stable | inactive | inactive | inactive | inactive | inactive | 6.25 (≈ 22.2 µM) | inactive | inactive | inactive | inactive | inactive | > 100 | inactive | inactive | inactive | inactive | > 100 | inactive | growth inhibition (GI) [9]: inactive; log K [11]: 0.4168
4 | O=C(Nc1ccccc1Cl)c1cnc(Cl)cn1 | 0.78 (≈ 2.91 µM) | Stable | inactive | inactive | inactive | inactive | inactive | – | inactive | inactive | inactive | inactive | inactive | > 100 | inactive | inactive | inactive | inactive | > 100 | inactive | growth inhibition (GI) [9]: inactive; log K [11]: 0.8193
5 | Cc1ccccc1CNC(=O)c1cnc(Cl)cn1 | 50 (≈ 191 µM) | Stable | inactive | inactive | inactive | inactive | inactive | 25 (≈ 95.5 µM) | inactive | inactive | inactive | inactive | inactive | > 100 | inactive | inactive | inactive | inactive | > 100 | inactive | growth inhibition (GI) [9]: inactive; log K [11]: 0.3947
6 | NNC(=O)c1ccncc1 [ISONIAZID] | 1.56 (≈ 11.4 µM) | – | – | – | – | – | – | 12.5 (≈ 91.1 µM) | – | – | – | – | – | 6.25 (≈ 45.6 µM) | – | – | – | – | 25 (≈ 182 µM) | – | –
7 | O=C(Nc1cccc([N+](=O)[O-])c1)c1cnc(Cl)cn1 | 3.13 (≈ 11.2 µM) | Stable | inactive | inactive | inactive | inactive | inactive | – | inactive | inactive | inactive | inactive | inactive | > 100 | inactive | inactive | inactive | inactive | > 100 | inactive | growth inhibition (GI) [9]: inactive; log K [11]: 0.3443
8 | Cc1ccc(CNC(=O)c2cnc(Cl)cn2)cc1 | 25 (≈ 95.5 µM) | Stable | inactive | inactive | inactive | inactive | inactive | 3.13 (≈ 12 µM) | inactive | inactive | inactive | inactive | inactive | > 100 | inactive | inactive | inactive | inactive | > 100 | inactive | growth inhibition (GI) [9]: inactive; log K [11]: 0.4199
9 | O=C(NCc1cccc(Cl)c1)c1cnc(Cl)cn1 | 25 (≈ 88.6 µM) | Stable | inactive | inactive | inactive | inactive | inactive | 50 (≈ 177 µM) | inactive | inactive | inactive | inactive | inactive | > 100 | inactive | inactive | inactive | inactive | > 100 | inactive | growth inhibition (GI) [9]: inactive; log K [11]: 0.4229
10 | NC(=O)c1cnccn1 [PYRAZINAMIDE] | 12.5 (≈ 102 µM) | – | – | – | – | – | – | > 100 | – | – | – | – | – | > 100 | – | – | – | – | > 100 | – | –
11 | O=C(Nc1cccc(Cl)c1)c1cnc(Cl)cn1 | 3.13 (≈ 11.7 µM) | Stable | inactive | inactive | inactive | inactive | inactive | 25 (≈ 93.2 µM) | inactive | inactive | inactive | inactive | inactive | 25 (≈ 93.2 µM) | inactive | inactive | inactive | inactive | 25 (≈ 93.2 µM) | inactive | growth inhibition (GI) [9]: inactive; log K [11]: 0.5873
12 | OC(Cn1cncn1)(Cn1cncn1)c1ccc(F)cc1F | – | – | – | Active | Active | – | – | – | – | – | Active | Active | – | – | – | Active | Active | Active | – | Active | –
